Measurements: patent publication US9023789B2, “Amylin analogs and pharmaceutical compositions thereof” (Novo Nordisk A/S, priority 2012, dated 2015)
In brackets after ≈: the same amount, converted by molar mass. Like-named read-outs stand apart in the source and are kept apart here. Numbered stars: 1 amine (or outer) side, 2 acyl side, 3 side chain; on linkers, the order of the positions; unused ones are H or OH. Bridge positions count the residues as written; N and C are the ends. Side chains are listed from the residue outwards. Peptide text beside a SMILES is read from it. * marks the point of attachment. C20 diacid = O=C(O)CCCCCCCCCCCCCCCCCCC(=O)*; γGlu = O=C(O)[C@H](CCC(=O)[*:2])N[*:1]

How the values were obtained:
[1] = molecular target: T1, rat amylin receptor (rat calcitonin receptor + rat RAMP 3) (Rattus norvegicus, UniProt P32214+Q9JJ73); test: ASSAY (VI) binding to the rat amylin receptor; conditions: for IC50: binding to rat amylin receptor, read-out: rAmylin-R bind IC50
T1 construct: expressed in transfected cells; host or cells: BHK tk'ts 13 (transient, FuGENE 6), membranes
T1 sequence (P32214 25-479 isoform P32214-2 limits assumed): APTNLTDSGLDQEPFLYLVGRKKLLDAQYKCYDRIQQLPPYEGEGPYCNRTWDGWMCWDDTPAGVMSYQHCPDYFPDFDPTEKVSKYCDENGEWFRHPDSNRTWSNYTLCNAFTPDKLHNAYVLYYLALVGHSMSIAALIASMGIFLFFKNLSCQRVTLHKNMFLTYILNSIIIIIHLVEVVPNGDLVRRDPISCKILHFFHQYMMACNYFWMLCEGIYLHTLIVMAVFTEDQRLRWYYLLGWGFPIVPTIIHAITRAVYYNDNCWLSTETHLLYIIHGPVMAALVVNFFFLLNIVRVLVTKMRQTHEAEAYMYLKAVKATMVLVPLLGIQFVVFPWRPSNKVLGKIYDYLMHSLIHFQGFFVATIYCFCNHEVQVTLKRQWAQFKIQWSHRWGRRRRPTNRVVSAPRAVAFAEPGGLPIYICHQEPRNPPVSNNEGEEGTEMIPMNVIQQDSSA
T1 sequence (Q9JJ73 23-147 partner): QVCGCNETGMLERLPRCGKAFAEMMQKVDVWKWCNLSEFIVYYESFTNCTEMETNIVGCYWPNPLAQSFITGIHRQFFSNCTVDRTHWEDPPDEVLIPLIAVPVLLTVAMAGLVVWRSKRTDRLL
Summary of the method: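 This assay measured binding to the rat amylin receptor. BHK tk′ts 13 cells were transiently transfected with the rat calcitonin receptor using FuGENE® 6 (Roche), following the manufacturer's recommendations. About 48 hours after transfection, the cells were harvested and membranes were prepared from them for the binding determination.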

[2] = molecular target: T2, human amylin 3(a) receptor (human calcitonin receptor + RAMP-3) in BHK570 cells (Homo sapiens, UniProt O60896+P30988); test: ASSAY (II)a functional assay, human amylin receptor (CRE luciferase); assay type: cell-based
T2 construct: expressed in transfected cells
Summary of the method: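 Ligand exposure 3 h at 37 °C, 5% CO2 in DMEM with 10% FBS, 10 mM Hepes pH 7.4. cAMP-driven luciferase read by luminescence after 30 min LucLite at room temperature.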

[3] = ASSAY (IV) determination of solubility; assay type: physicochemical
Summary of the method: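 Dissolve polypeptide in water ([…] stock); combine 1:1 with each 100 mM buffer (glycylglycine pH 3.0/4.0/5.0; bistrispropane pH 6.0/6.5/7.0/7.5/8.0); hold 18 hours at room temperature; centrifuge; quantify polypeptide by UPLC.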

rat calcitonin receptor = molecular target: T3, rat calcitonin receptor (Rattus norvegicus, UniProt P32214); test: ASSAY (VIII) binding to the rat calcitonin receptor; conditions: Table 7, read-out: rCTR bind IC50
T3 construct: expressed in transfected cells; host or cells: BHK tk'ts 13 (transient, FuGENE 6), membranes
T3 sequence (P32214 25-479 isoform P32214-2 limits assumed): T1 sequence (P32214 25-479 isoform P32214-2 limits assumed)
Summary of the method: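 Rat calcitonin receptor is expressed transiently in BHK tk′ts 13 cells cultured in DMEM with 10% FBS. Roughly two days (approximately 48 hours) post-transfection, cells are harvested for membrane preparation.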

[4] = molecular target: T4, human amylin receptor (membranes from Amylin 3(a)/CRE-luc cells) (Homo sapiens, UniProt O60896+P30988); test: ASSAY (V) binding to the human amylin receptor (SPA, 125I-rat amylin);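 also: competition binding of cell membranes (35 ng/µL) mixed with SPA beads in 384-well plates at 40 µL total volume, read by scintillation counting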
T4 construct: expressed in transfected cells
T4 sequence (P30988 25-474): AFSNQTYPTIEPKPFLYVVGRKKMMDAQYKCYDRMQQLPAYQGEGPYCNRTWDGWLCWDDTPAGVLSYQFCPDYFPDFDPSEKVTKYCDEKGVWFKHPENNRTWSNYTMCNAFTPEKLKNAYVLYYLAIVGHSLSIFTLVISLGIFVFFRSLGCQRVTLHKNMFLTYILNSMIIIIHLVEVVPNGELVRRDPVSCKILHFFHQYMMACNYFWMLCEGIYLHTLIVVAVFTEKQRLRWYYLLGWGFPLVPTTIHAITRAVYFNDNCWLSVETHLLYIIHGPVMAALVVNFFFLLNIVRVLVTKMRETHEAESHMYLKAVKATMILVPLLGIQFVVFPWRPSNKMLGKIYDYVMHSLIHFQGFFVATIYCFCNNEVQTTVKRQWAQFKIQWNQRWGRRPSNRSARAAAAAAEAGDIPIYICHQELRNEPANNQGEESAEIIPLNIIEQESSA
T4 sequence (O60896 24-148 partner): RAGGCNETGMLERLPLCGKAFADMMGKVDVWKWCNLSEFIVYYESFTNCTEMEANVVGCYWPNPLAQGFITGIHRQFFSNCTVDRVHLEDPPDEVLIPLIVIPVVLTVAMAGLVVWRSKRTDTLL

[5] = Table 7, rat binding selectivity, rCTR IC50 / rAmylin-R IC50
[6] = Table 7a (preferred compounds), rat binding selectivity, rCTR IC50 / rAmylin-R IC50
[7] = human functional selectivity: hCTR funct. EC50 / hAmylin-R funct. EC50
[8] = bistrispropane buffer, pH 6.5, read-out: Solubility pH 6.5 Concentration
[9] = bistrispropane buffer, pH 7.5, read-out: Solubility pH 7.5 Concentration
[10] = bistrispropane buffer, pH 6.0, read-out: Solubility pH 6.0 Concentration
[11] = bistrispropane buffer, pH 7.0, read-out: Solubility pH 7.0 Concentration
[12] = bistrispropane buffer, pH 8.0, read-out: Solubility pH 8.0 Concentration
[13] = glycylglycine buffer, pH 3.0, read-out: Solubility pH 3.0 Concentration
[14] = glycylglycine buffer, pH 4.0, read-out: Solubility pH 4.0 Concentration
[15] = glycylglycine buffer, pH 5.0, read-out: Solubility pH 5.0 Concentration
[16] = Table 5, selectivity, hCTR bind IC50 / hAmylin-R bind IC50
[17] = Table 7, human binding selectivity, included for comparison
[18] = Table 7a (preferred compounds), human binding selectivity, included for comparison

Structure (SMILES)	IC50 ([1]; Table 7) [nM]	Ratio rCT/rAmylin binding [1, 5]	Ratio rCT/rAmylin binding [1, 6]	Ratio hCT/hAmylin funct. [2, 7]	solubility at 18 h [3, 8] [µM]	solubility at 18 h [3, 9] [µM]	solubility at 18 h [3, 10] [µM]	solubility at 18 h [3, 11] [µM]	solubility at 18 h [3, 12] [µM]	solubility at 18 h [3, 13] [µM]	solubility at 18 h [3, 14] [µM]	solubility at 18 h [3, 15] [µM]	IC50 (rat calcitonin receptor) [nM]	Ratio hCT/hAmylin binding [4, 16]	Ratio hCT/hAmylin binding [4, 17]	Ratio hCT/hAmylin binding [4, 18]	other results
CC[C@H](C)[C@H](NC(=O)[C@H](C)NC(=O)CNC(=O)[C@H](Cc1ccccc1)NC(=O)[C@H](CC(N)=O)NC(=O)[C@H](CCCCNC(=O)CC[C@H](NC(=O)CC[C@H](NC(=O)CCCCCCCCCCCCCCCCCCC(=O)O)C(=O)O)C(=O)O)NC(=O)[C@H](CO)NC(=O)[C@H](CO)NC(=O)[C@H](Cc1c[nH]cn1)NC(=O)[C@H](CCCNC(=N)N)NC(=O)[C@H](CC(C)C)NC(=O)[C@H](Cc1ccccc1)NC(=O)[C@H](CC(=O)O)NC(=O)[C@H](C)NC(=O)[C@H](CC(C)C)NC(=O)[C@H](CCCNC(=N)N)NC(=O)[C@H](CCC(N)=O)NC(=O)[C@@H](NC(=O)[C@H](C)NC(=O)[C@@H]1CSSC[C@H](NC(=O)[C@@H](N)CCCCN)C(=O)N[C@@H](CC(N)=O)C(=O)N[C@@H]([C@@H](C)O)C(=O)N[C@@H](C)C(=O)N[C@@H]([C@@H](C)O)C(=O)N1)[C@@H](C)O)C(=O)N1CCC[C@H]1C(=O)N[C@@H](CO)C(=O)N[C@@H](CO)C(=O)N[C@H](C(=O)N[C@@H](CC(N)=O)C(=O)N[C@H](C(=O)NCC(=O)N[C@@H](CO)C(=O)N[C@@H](CC(=O)O)C(=O)N[C@H](C(=O)N[C@@H](Cc1ccc(O)cc1)C(N)=O)[C@@H](C)O)C(C)C)[C@@H](C)O [Example 59] (H-KCNTATCATQRLADFLRHSSK([γGlu-γGlu-C20 diacid])NFGAIPSSTNVGSDTY-NH2; disulfide 2-7; N-terminus assumed)	0.659	28.5	28.5	5.0	≥ 200	≥ 200	≥ 200	≥ 200	≥ 200	≥ 200	≥ 200	≥ 200	18.8	4.3	4.3	4.3	EC50 ([2]; human amylin receptor functional potency, assay (II), read-out: hAmylin-R funct. EC50): 0.389 nM; IC50 ([4]; Table 4, read-out: hAmylin-R bind IC50): 1.19 nM
CC[C@H](C)[C@H](NC(=O)[C@H](C)NC(=O)CNC(=O)[C@H](Cc1ccccc1)NC(=O)[C@H](CC(N)=O)NC(=O)[C@@H]1CCCN1C(=O)[C@H](CO)NC(=O)[C@H](CO)NC(=O)[C@H](Cc1c[nH]cn1)NC(=O)[C@H](CCCNC(=N)N)NC(=O)[C@H](CC(C)C)NC(=O)[C@H](Cc1ccccc1)NC(=O)[C@H](CC(N)=O)NC(=O)[C@H](C)NC(=O)[C@H](CC(C)C)NC(=O)[C@H](CCCNC(=N)N)NC(=O)[C@H](CCC(N)=O)NC(=O)[C@@H](NC(=O)[C@H](C)NC(=O)[C@@H]1CSSC[C@H](NC(=O)[C@@H](N)CCCCNC(=O)COCCOCCNC(=O)COCCOCCNC(=O)CC[C@H](NC(=O)CCCCCCCCCCCCCCCCCCC(=O)O)C(=O)O)C(=O)N[C@@H](CC(N)=O)C(=O)N[C@@H]([C@@H](C)O)C(=O)N[C@@H](C)C(=O)N[C@@H]([C@@H](C)O)C(=O)N1)[C@@H](C)O)C(=O)N1CCC[C@H]1C(=O)N[C@@H](CO)C(=O)N[C@@H](CO)C(=O)N[C@H](C(=O)N[C@@H](CC(N)=O)C(=O)N[C@H](C(=O)NCC(=O)N1CCC[C@H]1C(=O)N[C@@H](CC(N)=O)C(=O)N[C@H](C(=O)N[C@@H](Cc1ccc(O)cc1)C(N)=O)[C@@H](C)O)C(C)C)[C@@H](C)O [Example 98]	0.137	175.5	175.5	19.5	≥ 200	≥ 200	≥ 200	≥ 200	176 (≈ 824 µg/mL)	≥ 200	≥ 200	≥ 200	24.1	74.1	74.1	74.1	Ratio rCT/rAmylin binding ([1]; ratio of rCTR bind IC50 to rAmylin-R bind IC50): 175.5; Ratio hCT/hAmylin funct. ([2]; hCTR funct. EC50 divided by hAmylin-R funct. EC50): 19.5; Ratio hCT/hAmylin funct. ([2]; hCTR funct. EC50 over hAmylin-R funct. EC50): 19.5; Ratio hCT/hAmylin binding ([4]; Table 5a, selectivity, hCTR bind IC50 / hAmylin-R bind IC50): 74.1; Ratio hCT/hAmylin binding ([4]; Table 5b, selectivity, hCTR bind IC50 / hAmylin-R bind IC50): 74.1; Ratio hCT/hAmylin binding ([4]; Table 5c, selectivity, hCTR bind IC50 / hAmylin-R bind IC50): 74.1; Ratio hCT/hAmylin binding ([4]; ratio of human calcitonin receptor binding IC50 to human amylin receptor binding IC50): 74.1
